Data as given in PubChem BioAssay AID1259407 (Chemical Carcinogenesis Research Information System (CCRIS), 2018).
Active and inactive are the calls of the source. No rule for the calls is given here.

Test system: CCRIS mutagenicity, Ames/micronucleus/aberration tests
Assay: CCRIS mutagenicity studies
[1] = End Point: IN VITRO CHROMOSOMAL ABERRATIONS, Test System: CHO CELLS, Metabolic Activation: NONE
[2] = Test System: AMES SALMONELLA TYPHIMURIUM, Strain/Indicator: TA98, Metabolic Activation: HAMSTER, LIVER, S-9, AROCLOR 1254 (10%), Method: PREINCUBATION
[3] = Test System: AMES SALMONELLA TYPHIMURIUM, Strain/Indicator: TA98, Metabolic Activation: NONE, Method: PREINCUBATION
[4] = Test System: AMES SALMONELLA TYPHIMURIUM, Strain/Indicator: TA98, Metabolic Activation: NONE, Method: STANDARD PLATE
[5] = Test System: AMES SALMONELLA TYPHIMURIUM, Strain/Indicator: TA98, Metabolic Activation: RAT, LIVER, S-9, AROCLOR 1254 (10%), Method: PREINCUBATION
[6] = Test System: AMES SALMONELLA TYPHIMURIUM, Strain/Indicator: TA98, Metabolic Activation: RAT, LIVER, S-9, AROCLOR 1254, Method: STANDARD PLATE
[7] = Test System: AMES SALMONELLA TYPHIMURIUM, Strain/Indicator: TA100, Metabolic Activation: HAMSTER, LIVER, S-9, AROCLOR 1254 (10%), Method: PREINCUBATION
[8] = Test System: AMES SALMONELLA TYPHIMURIUM, Strain/Indicator: TA100, Metabolic Activation: NONE, Method: PREINCUBATION
[9] = Test System: AMES SALMONELLA TYPHIMURIUM, Strain/Indicator: TA100, Metabolic Activation: RAT, LIVER, S-9, AROCLOR 1254 (10%), Method: PREINCUBATION
[10] = Test System: AMES SALMONELLA TYPHIMURIUM, Strain/Indicator: TA1535, Metabolic Activation: HAMSTER, LIVER, S-9, AROCLOR 1254 (10%), Method: PREINCUBATION
[11] = Test System: AMES SALMONELLA TYPHIMURIUM, Strain/Indicator: TA1535, Metabolic Activation: NONE, Method: PREINCUBATION
[12] = Test System: AMES SALMONELLA TYPHIMURIUM, Strain/Indicator: TA1535, Metabolic Activation: RAT, LIVER, S-9, AROCLOR 1254 (10%), Method: PREINCUBATION
[13] = Test System: AMES SALMONELLA TYPHIMURIUM, Strain/Indicator: TA1537, Metabolic Activation: HAMSTER, LIVER, S-9, AROCLOR 1254 (10%), Method: PREINCUBATION
[14] = Test System: AMES SALMONELLA TYPHIMURIUM, Strain/Indicator: TA1537, Metabolic Activation: NONE, Method: PREINCUBATION
[15] = Test System: AMES SALMONELLA TYPHIMURIUM, Strain/Indicator: TA1537, Metabolic Activation: RAT, LIVER, S-9, AROCLOR 1254 (10%), Method: PREINCUBATION
[16] = Test System: AMES SALMONELLA TYPHIMURIUM, Strain/Indicator: TA100, Metabolic Activation: RAT, LIVER, S-9, AROCLOR 1254, Method: STANDARD PLATE
[17] = Test System: AMES SALMONELLA TYPHIMURIUM, Strain/Indicator: TA100, Metabolic Activation: NONE, Method: STANDARD PLATE

Question: `Nc1ccc([N+](=O)[O-])cc1O` was tested. Which mutagenic call [1] did it give?
Answer: active; positive; precipitation occurred at 100.5 and 149.9 ug/ml

Question: What about the mutagenic call (End Point: IN VITRO CHROMOSOMAL ABERRATIONS, Test System: CHO CELLS, Metabolic Activation: RAT, LIVER, S-9, AROCLOR 1254) of the same molecule?
Answer: active; positive; precipitation occurred at both doses

Question: And the mutagenic call [2]?
Answer: active; positive

Question: What about the mutagenic call (Test System: AMES SALMONELLA TYPHIMURIUM, Strain/Indicator: TA98, Metabolic Activation: HAMSTER, LIVER, S-9, AROCLOR 1254, Method: PREINCUBATION) of the same molecule?
Answer: active; positive

Question: And the mutagenic call (Test System: AMES SALMONELLA TYPHIMURIUM, Strain/Indicator: TA98, Metabolic Activation: NONE, Method: FLUCTUATION (MICROTITER))?
Answer: active; positive

Question: And the mutagenic call [3]?
Answer: active; positive

Question: And the mutagenic call [4]?
Answer: active; positive

Question: What about the mutagenic call [5] of the same molecule?
Answer: active; positive

Question: What about the mutagenic call (Test System: AMES SALMONELLA TYPHIMURIUM, Strain/Indicator: TA98, Metabolic Activation: RAT, LIVER, S-9, AROCLOR 1254, Method: PREINCUBATION) of the same molecule?
Answer: active; positive

Question: And the mutagenic call [6]?
Answer: inactive; negative

Question: What about the mutagenic call [7] of the same molecule?
Answer: inactive; negative

Question: What about the mutagenic call [8] of the same molecule?
Answer: inactive; negative

Question: And the mutagenic call [9]?
Answer: inactive; negative

Question: What about the mutagenic call [10] of the same molecule?
Answer: inactive; negative

Question: And the mutagenic call (Test System: AMES SALMONELLA TYPHIMURIUM, Strain/Indicator: TA1535, Metabolic Activation: HAMSTER, LIVER, S-9, AROCLOR 1254, Method: PREINCUBATION)?
Answer: inactive; negative

Question: And the mutagenic call [11]?
Answer: inactive; negative

Question: And the mutagenic call [12]?
Answer: inactive; negative

Question: What about the mutagenic call (Test System: AMES SALMONELLA TYPHIMURIUM, Strain/Indicator: TA1535, Metabolic Activation: RAT, LIVER, S-9, AROCLOR 1254, Method: PREINCUBATION) of the same molecule?
Answer: inactive; negative

Question: And the mutagenic call [13]?
Answer: active; positive

Question: What about the mutagenic call (Test System: AMES SALMONELLA TYPHIMURIUM, Strain/Indicator: TA1537, Metabolic Activation: HAMSTER, LIVER, S-9, AROCLOR 1254, Method: PREINCUBATION) of the same molecule?
Answer: active; positive

Question: What about the mutagenic call (Test System: AMES SALMONELLA TYPHIMURIUM, Strain/Indicator: TA1537, Metabolic Activation: NONE, Method: FLUCTUATION (MICROTITER)) of the same molecule?
Answer: inactive; negative

Question: What about the mutagenic call [14] of the same molecule?
Answer: active; positive

Question: And the mutagenic call [15]?
Answer: active; positive

Question: And the mutagenic call (Test System: AMES SALMONELLA TYPHIMURIUM, Strain/Indicator: TA1537, Metabolic Activation: RAT, LIVER, S-9, AROCLOR 1254, Method: PREINCUBATION)?
Answer: active; positive

Question: And the mutagenic call (Test System: AMES SALMONELLA TYPHIMURIUM, Strain/Indicator: TA7001, Metabolic Activation: NONE, Method: FLUCTUATION (MICROTITER))?
Answer: inactive; negative

Question: What about the mutagenic call (Test System: AMES SALMONELLA TYPHIMURIUM, Strain/Indicator: TA7002, Metabolic Activation: NONE, Method: FLUCTUATION (MICROTITER)) of the same molecule?
Answer: inactive; negative

Question: What about the mutagenic call (Test System: AMES SALMONELLA TYPHIMURIUM, Strain/Indicator: TA7003, Metabolic Activation: NONE, Method: FLUCTUATION (MICROTITER)) of the same molecule?
Answer: inactive; negative

Question: And the mutagenic call (Test System: AMES SALMONELLA TYPHIMURIUM, Strain/Indicator: TA7004, Metabolic Activation: NONE, Method: FLUCTUATION (MICROTITER))?
Answer: inactive; negative

Question: And the mutagenic call (Test System: AMES SALMONELLA TYPHIMURIUM, Strain/Indicator: TA7005, Metabolic Activation: NONE, Method: FLUCTUATION (MICROTITER))?
Answer: inactive; negative

Question: What about the mutagenic call (Test System: AMES SALMONELLA TYPHIMURIUM, Strain/Indicator: TA7006, Metabolic Activation: NONE, Method: FLUCTUATION (MICROTITER)) of the same molecule?
Answer: inactive; negative

Question: And the mutagenic call (Test System: MOUSE LYMPHOMA, Strain/Indicator: L5178Y (TK+/TK-), Metabolic Activation: NONE, Method: SUSPENSION/PLATE)?
Answer: active; positive

Question: `O=C1OC(=O)c2ccccc21` was tested. Which mutagenic call (End Point: IN VITRO CHROMOSOMAL ABERRATIONS, Test System: CHINESE HAMSTER OVARY CELLS, Metabolic Activation: NONE) did it give?
Answer: inactive; negative

Question: What about the mutagenic call (End Point: IN VITRO CHROMOSOMAL ABERRATIONS, Test System: CHINESE HAMSTER OVARY CELLS, Metabolic Activation: RAT, LIVER, S-9, AROCLOR 1254) of the same molecule?
Answer: inactive; negative

Question: What about the mutagenic call [1] of the same molecule?
Answer: active; positive; precipitation occurred at 10 mm

Question: What about the mutagenic call [2] of the same molecule?
Answer: inactive; negative

Question: And the mutagenic call [3]?
Answer: inactive; negative

Question: What about the mutagenic call (Test System: AMES SALMONELLA TYPHIMURIUM, Strain/Indicator: TA98, Metabolic Activation: RAT LIVER S-9, PHENOBARBITAL AND BETA-NAPHTHOFLAVONE, Method: PREINCUBATION) of the same molecule?
Answer: inactive; negative

Question: What about the mutagenic call [5] of the same molecule?
Answer: inactive; negative

Question: And the mutagenic call [7]?
Answer: inactive; negative

Question: And the mutagenic call [8]?
Answer: inactive; negative

Question: And the mutagenic call (Test System: AMES SALMONELLA TYPHIMURIUM, Strain/Indicator: TA100, Metabolic Activation: RAT LIVER S-9, PHENOBARBITAL AND BETA-NAPHTHOFLAVONE, Method: PREINCUBATION)?
Answer: inactive; negative

Question: And the mutagenic call [9]?
Answer: inactive; negative

Question: What about the mutagenic call [10] of the same molecule?
Answer: inactive; negative

Question: What about the mutagenic call [11] of the same molecule?
Answer: inactive; negative

Question: What about the mutagenic call (Test System: AMES SALMONELLA TYPHIMURIUM, Strain/Indicator: TA1535, Metabolic Activation: RAT LIVER S-9, PHENOBARBITAL AND BETA-NAPHTHOFLAVONE, Method: PREINCUBATION) of the same molecule?
Answer: inactive; negative

Question: What about the mutagenic call [12] of the same molecule?
Answer: inactive; negative

Question: And the mutagenic call [13]?
Answer: inactive; negative

Question: What about the mutagenic call [14] of the same molecule?
Answer: inactive; negative

Question: And the mutagenic call (Test System: AMES SALMONELLA TYPHIMURIUM, Strain/Indicator: TA1537, Metabolic Activation: RAT LIVER S-9, PHENOBARBITAL AND BETA-NAPHTHOFLAVONE, Method: PREINCUBATION)?
Answer: inactive; negative

Question: And the mutagenic call [15]?
Answer: inactive; negative

Question: And the mutagenic call (Test System: E.COLI, Strain/Indicator: WP2UVRA, Metabolic Activation: NONE, Method: PREINCUBATION)?
Answer: inactive; negative

Question: And the mutagenic call (Test System: E.COLI, Strain/Indicator: WP2UVRA, Metabolic Activation: RAT LIVER S-9, PHENOBARBITAL AND BETA-NAPHTHOFLAVONE, Method: PREINCUBATION)?
Answer: inactive; negative

Question: For `Cc1ccc2c(ccc3[nH]c4ccc5ccccc5c4c32)c1`, which mutagenic call [16] is on record?
Answer: active; positive

Question: Which mutagenic call (Test System: AMES SALMONELLA TYPHIMURIUM, Strain/Indicator: TA1537, Metabolic Activation: NONE, Method: STANDARD PLATE) does the source give for `CN(C)CCNC(=O)c1cccn2cc(-c3ccccc3)nc12` here?
Answer: active; positive

Question: With `O=C(/C=C/c1ccccc1)c1ccc([N+](=O)[O-])cc1` as the molecule, how does the mutagenic call [17] read?
Answer: inactive; negative

Question: What about the mutagenic call [16] of the same molecule?
Answer: inactive; negative

Question: How did the mutagenic call [4] turn out when `O=c1ccc2cc3ccoc3cc2o1` was run?
Answer: inactive; negative

Question: And the mutagenic call [6]?
Answer: inactive; negative

Question: And the mutagenic call (Test System: AMES SALMONELLA TYPHIMURIUM, Strain/Indicator: TA98, Metabolic Activation: RAT, LIVER, S-9, PHENOBARBITAL, Method: STANDARD PLATE)?
Answer: inactive; negative

Question: And the mutagenic call [17]?
Answer: inactive; negative

Question: What about the mutagenic call [16] of the same molecule?
Answer: inactive; negative

Question: `O=C/C=C/C=C/CO` was tested. Which mutagenic call (Test System: CHINESE HAMSTER V-79, Strain/Indicator: V-79 (HGPRT)/8-AZAGUANINE, Metabolic Activation: NONE) did it give?
Answer: active; positive
